Consider five compounds from PubChem BioAssay AID743392 (Broad Institute, 2014).

The source made the active and inactive calls.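 The calls were made as follows: active = phosphorylated Mpk1, a fungal stress kinase, cut by at least 20% below its untreated level on western blot; inactive = the rest.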

The subject of this assay is Mitogen-activated protein kinase MPK1 phosphorylation (Cryptococcus neoformans H99). Put plainly: reduced phospho-Mpk1 levels in Cryptococcus cells – cell-based, single point, dry powder, imaging, mechanism study for C. neoformans antifungal project (AID 743392). The settings on record: C. neoformans H99, pMpk1 Western blot, 2 h; active compounds read high; concentration not given here. In general terms: A western blot detects proteins with antibodies after separation by electrophoresis.
The inhibition is the share of the control response that was lost under treatment. For `Cc1cccc(OCCn2c(=S)[nH]c3c(F)cccc32)c1`, the inhibition was 4% (inactive).
The same measure for `S=c1[nH]c2ccccc2n1CCOc1ccccc1Cl`: 56%.
Turning to `CC(C)c1ccc(OCCn2c(=S)[nH]c3ccccc32)cc1`, the inhibition is 62%.
As to `Fc1cccc(OCCn2c(=S)[nH]c3ccccc32)c1`, the inhibition is 52%.
Regarding `Cc1ccc(C(C)C)c(OCCn2c(=S)[nH]c3ccccc32)c1`, the inhibition was 53%.
